For 18 compounds, EC50 results are on record in patent US10272095B2 (GlaxoSmithKline Intellectual Property Development Limited, priority 2015, dated 2019).

Where a name gives a salt, the structure may show the parent alone.

The test system of the assay is NQO1 specific enzyme activity in BEAS-2B cells. Nature of the assay: BEAS-2B NQO1 MTT assay. Particulars: Homo sapiens, BEAS-2B, 48 h, NQO1 specific enzyme activity induction in BEAS-2B cells, 48 hours; read-out: EC50. It counts as cell-based. From the text:
NAD(P)H:quinone oxidoreductase 1 (NQO1), also called DT diaphorase, is a homodimeric FAD-containing enzyme that catalyzes obligatory NAD(P)H-dependent two-electron reductions of quinones and protects cells against the toxic and neoplastic effects of free radicals and reactive oxygen species arising from one-electron reductions. The transcription of NQO1 is finely regulated by NRF2, and thus NQO1 activity is a good marker for NRF2 activation. On day one, frozen BEAS-2B cells (ATCC) are thawed in a water bath, counted, and re-suspended at a concentration of 250,000 cells/mL. Fifty microliters of cells are plated in 384 well black clear-bottomed plates. Plates are incubated at 37° C., 5% CO2 overnight. On day two, plates are centrifuged and 50 nL of compound or controls are added to the cells. Plates are then incubated at 37° C., 5% CO2 for 48 hours. On day four, medium is aspirated from the plate and crude cell lysates are made by adding 13 uL of 1× Cell Signaling Technologies lysis buffer with 1 Complete, Mini, EDTA-free Protease Inhibitor Tablet (Roche) for each 10 mL of lysis buffer. After lysis plates are incubated for 20 minutes at room temperature. Two microliters of lysate are removed for use in Cell Titer Glo assay (Promega) and MTT cocktail is prepared (Prochaska et. al. 1998) for measurement of NQO1 activity. Fifty microliters of MTT cocktail is added to each well, plate is centrifuged, and analyzed on an Envision plate reader (Perkin Elmer) using Absorbance 570 nm label for 30 minutes. Product formation is measured kinetically and the pEC50 of NQO1 specific activity induction is calculated by plotting the change in absorbance (Delta OD/min) versus the log of compound concentration followed by 3-parameter fitting.
EC50s<1 nM (+++++), EC50s 10 nM-1 nM (++++), EC50s 10-100 nM (+++), EC50s 100 nM-1 uM (++), EC50s 1 uM-10 uM (+), EC50s>10 uM (−), or were not determined (ND).
In the case of `Cc1c(C(CC(=O)O)c2ccc3c(c2)C(N2Cc4ccccc4O[C@H](C)C2)CCC3)ccc2c1nnn2C` (stereo partly drawn) [Example 66, 3-(1,4-Dimethyl-1H-benzo[d][1,2,3]triazol-5-yl)-3-(8-((R)-2-methyl-2,3-dihydrobenzo[f][1,4]oxazepin-4(5H)-yl)-5,6,7,8-tetrahydronaphthalen-2-yl)propanoic Acid], the EC50 (commonly the midpoint of the concentration-response curve) is 100 to 1000 nM. Under `Cc1ccc2c(c1)CN(C1CCc3ccc(C(c4ccc5c(nnn5C)c4C)C(C)(C)C(=O)O)cc31)C[C@@H](C)O2` (stereo partly drawn) [Example 31, 3-(1,4-Dimethyl-1H-benzo[d][1,2,3]triazol-5-yl)-3-(3-((R)-2,7-dimethyl-2,3-dihydrobenzo[f][1,4]oxazepin-4(5H)-yl)-2,3-dihydro-1H-inden-5-yl)-2,2-dimethylpropanoic Acid, Formic Acid Salt] stands 1 to 10 nM. For `Cc1c(C(c2ccc3c(c2)C(N2CCOc4ccccc4C2)CC3)C(C)(C)C(=O)O)ccc2c1nnn2C` (stereo not drawn) [Example 38, 3-(3-(2,3-Dihydrobenzo[f][1,4]oxazepin-4(5H)-yl)-2,3-dihydro-1H-inden-5-yl)-3-(1,4-dimethyl-1H-benzo[d][1,2,3]triazol-5-yl)-2,2-dimethylpropanoic Acid, Formic Acid Salt], the EC50 was in the range of 1 to 10 nM. The value for `COc1ccc2c(c1)CN(C1CCc3ccc(C(CC(=O)O)c4ccc5c(nnn5C)c4C)cc31)CC(C)(C)O2` (stereo not drawn) [Example 23, 3-(1,4-Dimethyl-1H-benzo[d][1,2,3]triazol-5-yl)-3-(3-(7-methoxy-2,2-dimethyl-2,3-dihydrobenzo[f][1,4]oxazepin-4(5H)-yl)-2,3-dihydro-1H-inden-5-yl)propanoic Acid] was 1 to 10 nM. On to `CC[C@@H]1CN([C@@H]2CCc3ccc([C@@H](c4ccc5c(nnn5C)c4C)C(C)(C)C(=O)O)cc32)Cc2cnccc2O1` (relative stereo) [Example 71, rel-(S)-3-(1,4-Dimethyl-1H-benzo[d][1,2,3]triazol-5-yl)-3-(rel-(R)-3-((R)-2-ethyl-2,3-dihydropyrido[3,4-f][1,4]oxazepin-4(5H)-yl)-2,3-dihydro-1H-inden-5-yl)-2,2-dimethylpropanoic acid], for which the EC50 was 1 to 10 nM.

Turning to `Cc1c([C@@H](CC(=O)O)c2ccc3c(c2)[C@H](N2Cc4ccccc4OC(C)(C)C2)CC3)ccc2c1nnn2C` (single isomer, unassigned) [Example 41, 3-(1,4-Dimethyl-1H-benzo[d][1,2,3]triazol-5-yl)-3-(3-(2,2-dimethyl-2,3-dihydrobenzo[f][1,4]oxazepin-4(5H)-yl)-2,3-dihydro-1H-inden-5-yl)propanoic Acid, Formic Acid Salt], the 50% effective concentration (EC50) lay in the range of 1 to 10 nM. The value for `Cc1ccc2c(c1)CN(C1CCc3ccc(C(CC(=O)O)c4ccc5c(nnn5C)c4C)cc31)CC(C)(C)O2` (stereo not drawn) [Example 22, 3-(1,4-Dimethyl-1H-benzo[d][1,2,3]triazol-5-yl)-3-(3-(2,2,7-trimethyl-2,3-dihydrobenzo[f][1,4]oxazepin-4(5H)-yl)-2,3-dihydro-1H-inden-5-yl)propanoic Acid] was 1 to 10 nM; that for `Cc1cc(C#N)ccc1C(CC(=O)O)c1ccc2c(c1)C(N1Cc3cccnc3OC(C)(C)C1)CC2` (stereo not drawn) [Example 59, 3-(4-Cyano-2-methylphenyl)-3-(3-(2,2-dimethyl-2,3-dihydropyrido[3,2-f][1,4]oxazepin-4(5H)-yl)-2,3-dihydro-1H-inden-5-yl)propanoic Acid, Formic Acid Salt] was 100 to 1000 nM; that for `CCCC(C)C(=O)N1CCC2Cc3ccc(C(CC(=O)O)c4ccc5c(nnn5C)c4C)cc3C21` (stereo not drawn) [Example 10, 3-(1,4-Dimethyl-1H-1,2,3-benzotriazol-5-yl)-3-[1-(2-methylpentanoyl)-1H,2H,3H,3aH,4H,8bH-indeno[1,2-b]pyrrol-7-yl]propanoic Acid] was 1000 to 10000 nM. The value for `Cc1c(C(CC(=O)O)c2ccc3c(c2)C2C(CCN2C(=O)CC(C)(C)C)C3)ccc2c1nnn2C` (stereo not drawn) [Example 13, 3-(1,4-Dimethyl-1H-1,2,3-benzotriazol-5-yl)-3-[1-(3,3-dimethylbutanoyl)-1H,2H,3H,3aH,4H,8bH-indeno[1,2-b]pyrrol-7-yl]propanoic Acid] was 1000 to 10000 nM; that for `Cc1c(C(CC(=O)O)c2ccc3c(c2)C(N2Cc4ccccc4OC(C)(C)C2)CC3)ccc2c1nnn2C` (stereo not drawn) [Example 40, 3-(1,4-Dimethyl-1H-benzo[d][1,2,3]triazol-5-yl)-3-(3-(2,2-dimethyl-2,3-dihydrobenzo[f][1,4]oxazepin-4(5H)-yl)-2,3-dihydro-1H-inden-5-yl)propanoic Acid, Formic Acid Salt] was 1 to 10 nM. In the case of `CCn1cc(CCC(CC(=O)O)c2ccc3c(c2)[C@@H]2[C@@H](CC(=O)N2CC2CCCCC2)C3)nn1` (stereo partly drawn) [Example 3, 3-[(3aR,8bS)-1-(cyclohexylmethyl)-2-oxo-1H,2H,3H,3aH,4H,8bH-indeno[1,2-b]pyrrol-7-yl]-5-(1-ethyl-1H-1,2,3-triazol-4-yl)pentanoic Acid], the EC50 lay within 1000 to 10000 nM. For the compound `CC[C@@H]1CN(C2CCc3ccc(C(CC(=O)O)c4ccc5c(nnn5C)c4C)cc32)Cc2ccccc2O1` (stereo partly drawn) [Example 50, 3-(1,4-Dimethyl-1H-benzo[d][1,2,3]triazol-5-yl)-3-(3-((R)-2-ethyl-2,3-dihydrobenzo[f][1,4]oxazepin-4(5H)-yl)-2,3-dihydro-1H-inden-5-yl)propanoic Acid, Formic Acid Salt], the EC50 was 10 to 100 nM.

For `CCCc1cn(CCC(CC(=O)O)c2ccc3c(c2)C(N2Cc4ccccc4OC(C)(C)C2)CC3)nn1` (stereo not drawn) [Example 63, 3-(3-(2,2-Dimethyl-2,3-dihydrobenzo[f][1,4]oxazepin-4(5H)-yl)-2,3-dihydro-1H-inden-5-yl)-5-(4-propyl-1H-1,2,3-triazol-1-yl)pentanoic Acid, Trifluoroacetic Acid Salt], the EC50 is 1000 to 10000 nM. In the case of `COc1cc(C(CC(=O)O)c2ccc3c(c2)C(N2Cc4cnccc4OC(C)(C)C2)CC3)cc2nnn(C)c12` (stereo not drawn) [Example 46, 3-(3-(2,2-Dimethyl-2,3-dihydropyrido[3,4-f][1,4]oxazepin-4(5H)-yl)-2,3-dihydro-1H-inden-5-yl)-3-(7-methoxy-1-methyl-1H-benzo[d][1,2,3]triazol-5-yl)propanoic Acid, Formic Acid Salt], the EC50 was 10 to 100 nM. Under `Cc1c(C(CC(=O)O)c2ccc3c(c2)C(N2Cc4cccnc4OC(C)(C)C2)CC3)ccc2c1nnn2C` (stereo not drawn) [Example 51] stands 10 to 100 nM; under `COc1cc(C(CC(=O)O)c2ccc3c(c2)C(N2Cc4cccnc4OC(C)(C)C2)CC3)cc2nnn(C)c12` (stereo not drawn) [Example 55, 3-(3-(2,2-Dimethyl-2,3-dihydropyrido[3,2-f][1,4]oxazepin-4(5H)-yl)-2,3-dihydro-1H-inden-5-yl)-3-(7-methoxy-1-methyl-1H-benzo[d][1,2,3]triazol-5-yl)propanoic Acid, Formic Acid Salt], 100 to 1000 nM; under `Cc1c(C(CC(=O)O)c2ccc3c(c2)C2C(CCN2C(=O)OC(C)(C)C)C3)ccc2c1nnn2C` (stereo not drawn) [Example 6, 3-{1-[(tert-Butoxy)carbonyl]-1H,2H,3H,3aH,4H,8bH-indeno[1,2-b]pyrrol-7-yl}-3-(1,4-dimethyl-1H-1,2,3-benzotriazol-5-yl)propanoic Acid], 100 to 1000 nM.
